This assay has as its system VSV. It counts as cell-based, Vesicular stomatitis virus.

Values joined by “and” are separate entries in the source; they are usually repeats but may differ in a detail not shown here. Equal values may be shown once.

On to Human IFNγ, for which the “Effect on virus yield” value is listed as “had no effect”.

B1: muIFNγ (protein, UniProt P01580 23-155, looked up)
Interferon gamma: HGTVIESLESLNNYFNSSGIDVEEKSLFLDIWRNWQKDGDMKILQSQIISFYLRLFEVLKDNQAISNNISVIESHLITTFFSNSKAKKDAFMSIAKFEVNNPQVQRQAFNELIRVVHQLLPESSLRKRKRSRC
In the case of B1, the Virus yield is 1.2 × 10^8 and 1.6 × 10^10.
